Broadly, the melting point is the temperature, or range, at which the solid turns liquid.

As for `CC(C)(C)OC(=O)NCC(=O)Nc1ccc(N/C(=C2\C(=O)Nc3ccccc32)c2ccccc2)cc1` [Example 34, (Z)-3-[1-(4-tert.butoxycarbonylaminomethylcarbonylamino-phenylamino)-1-phenyl-methylidene]-2-indolinone], the melting point was 243 to 244 °C (dec.).

On to `CC(=O)N(C)c1ccc(N/C(=C2\C(=O)Nc3ccccc32)c2ccccc2)cc1` [Example 47, (Z)-3-{1-[4-(N-acetyl-N-methyl-amino)-phenylamino]-1-phenyl-methylidene}-2-indolinone], for which the melting point was in the range of 287 to 288 °C.

Compound `CN(C)C(=N)c1cccc(N/C(=C2\C(=O)Nc3ccccc32)c2ccccc2)c1` [Example 66, (Z)-3-{1-[3-(N,N-dimethylcarbamimidoyl)-phenylamino)-1-phenyl-methylidene}-2-indolinone] gave a melting point of 238 to 242 °C.

Compound `CN1CCN(Cc2cccc(N/C(=C3\C(=O)Nc4ccc([N+](=O)[O-])cc43)c3ccccc3)c2)CC1` [Example 110, (Z)-3-{1-[3-(4-methylpiperazinomethyl)-phenylamino]-1-phenyl-methylidene}-5-nitro-2-indolinone] had a melting point of 256 to 258 °C.

For `CN(CC(=O)O)S(=O)(=O)c1ccc(N/C(=C2\C(=O)Nc3ccccc32)c2ccccc2)cc1` [Example 409, (Z)-3-{1-[4-(N-carboxymethyl-N-methyl-aminosulphonyl)-phenylamino]-1-phenyl-methylidene}-2-indolinone], the melting point was 237 °C (dec.).

For the compound `CCNCc1ccc(N/C(=C2\C(=O)Nc3ccc([N+](=O)[O-])cc32)c2ccccc2)cc1` [Example 160, (Z)-3-[1-(4-ethylaminomethyl-phenylamino)-1-phenyl-methylidene]-5-nitro-2-indolinone], the melting point is 220 to 223 °C.

On to `CN(C)CC(=O)N(C)c1ccc(N/C(=C2\C(=O)Nc3ccccc32)c2ccccc2)cc1.Cl`, for which the melting point was in the range of 290 to 292 °C.

As to `N=C(N)c1cccc(N/C(=C2\C(=O)Nc3ccccc32)c2ccccc2)c1` [Example 64, (Z)-3-[1-(3-amidinophenylamino)-1-phenyl-methylidene]-2-indolinone], the melting point lay in the range of 235 to 237 °C.

Compound `COc1cccc(N/C(=C2\C(=O)Nc3ccccc32)c2ccccc2)c1` [Example 3, (Z)-3-[1-(3-methoxy-phenylamino)-1-phenyl-methylidene]-2-indolinone] returned a melting point of 218 to 221 °C.

Regarding `O=C1Nc2ccc([N+](=O)[O-])cc2/C1=C(/Nc1ccc(CCN2CCC(O)CC2)cc1)c1ccccc1` [Example 260, (Z)-3-{1-[4-(2-(4-hydroxypiperidino)-ethyl)-phenylamino]-1-phenyl-methylidene}-5-nitro-2-indolinone], the melting point lay in the range of 274 to 276 °C.

With `CN(C)CCNC(=O)c1ccc(N/C(=C2\C(=O)Nc3ccccc32)c2ccccc2)cc1` [Example 390, (Z)-3-{1-[4-(2-dimethylamino-ethylaminocarbonyl)-phenylamino]-1-phenyl-methylidene}-2-indolinone], the melting point is 145 to 147 °C.

As to `CN(C)CCS(=O)(=O)N(C)c1ccc(N/C(=C2\C(=O)Nc3ccccc32)c2ccccc2)cc1` [Example 382, (Z)-3-{1-[4-(N-(2-dimethylamino-ethylsulphonyl)-N-methyl-amino)-phenylamino]-1-phenyl-methylidene}-2-indolinone], the melting point was 165 to 168 °C.

In turn, `O=C1Nc2ccc([N+](=O)[O-])cc2/C1=C(/Nc1ccc(CN2CCSCC2)cc1)c1ccccc1` [Example 229, (Z)-3-[1-(4-thiomorpholinomethyl-phenylamino)-1-phenyl-methylidene]-5-nitro-2-indolinone] yielded a melting point of 276 to 277 °C.

Take `CNC(=O)CN(c1cccc(N/C(=C2\C(=O)Nc3ccccc32)c2ccc(CNC(C)=O)cc2)c1)S(C)(=O)=O` [Example 419, (Z)-3-{1-[3-(N-methylaminocarbonylmethyl-N-methylsulphonyl-amino)-phenylamino]-1-(4-acetylaminomethyl-phenyl)-methylidene}-2-indolinone]: the melting point was 242 °C.

Values taken from patent US6855710B2, “Substituted indolines with an inhibitory effect on various kinases and complexes of CDKs” (Boehringer Ingelheim Pharma KG, priority 1998, dated 2005).
